Values of other authors in patent publication US11969522B2, “Use of immune modulators to improve nerve regeneration” (The Board of Regents of the University of Texas System, priority 2019, dated 2024).

Tests used:
hematopoietic stem cells = conditions: animal and human studies
CXCR4 = conditions: chronic exposure, rhesus macaques

SMILES | hematopoietic stem cell mobilization (hematopoietic stem cells) | T lymphocyte CXCR4 expression on both CD4+ and CD8+ T lymphocytes (CXCR4)
c1cc(CN2CCCNCCNCCCNCC2)ccc1CN1CCCNCCNCCCNCC1 [Plerixafor] | very efficient inducer of hematopoietic stem cell mobilization | –
CCCCCc1cc(O)c2c(c1)OC(C)(C)[C@@H]1CCC(C)=C[C@@H]21 [THC] | – | increase
